Measured values taken from ChEMBL document CHEMBL2417531, “The discovery of inhibitors of Fas-mediated cell death pathway using the combined computational method” (Bioorg Med Chem Lett, 2013).

Target: T1, Tumor necrosis factor receptor superfamily member 6 (Rattus norvegicus) (UniProt Q63199)
T1 sequence (whole entry): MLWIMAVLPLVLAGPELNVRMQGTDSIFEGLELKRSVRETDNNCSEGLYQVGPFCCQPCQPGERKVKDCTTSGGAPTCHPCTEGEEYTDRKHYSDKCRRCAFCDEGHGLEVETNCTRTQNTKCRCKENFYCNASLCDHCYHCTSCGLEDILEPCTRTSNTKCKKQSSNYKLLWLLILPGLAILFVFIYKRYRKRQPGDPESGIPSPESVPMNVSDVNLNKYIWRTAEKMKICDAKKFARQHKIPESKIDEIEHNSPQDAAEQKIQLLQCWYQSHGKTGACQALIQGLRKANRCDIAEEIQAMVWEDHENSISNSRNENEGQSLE
Assay: Inhibition of Fas-mediated cell death in oxygen and glucose deprived rat H9c2 cells at 10 uM treated 30 mins before oxygen and glucose deprivation measured after 6 hrs by DAPI staining
Type: cell-based

Row | SMILES | inhibition
1 | COC(=O)c1sc2ccccc2c1NC(=O)CCSc1ccc(Br)cc1 | 8.57%
2 | COC(=O)c1sccc1NC(=O)CSc1ccc(Br)cc1 | 4%
3 | O=C(CSc1ccc(Br)cc1)Nc1c(Br)cc(Br)cc1C(=O)O | 16.1%
4 | Cc1csc(C(=O)O)c1NC(=O)CSc1ccc(Br)cc1 | 14.3%
5 | COc1cc(C(=O)O)c(NC(=O)CCSc2ccccn2)c(OC)c1OC | 28.6%
6 | COC(=O)c1oc2cccc(Cl)c2c1NC(=O)CSc1ccccn1 | 7.33%
7 | COC(=O)c1c(NC(=O)CSc2ccccc2N)cnn1CCc1ccccc1 | 5.4%
8 | COC(=O)c1c(NC(=O)CSc2ccc(Br)cc2)cnn1CCc1ccccc1 | 5.41%
9 | COC(=O)c1ccc(Cl)cc1NC(=O)CCSc1ccccn1 | 12.8%
10 | O=C(CSc1ccc(Br)cc1)Nc1ccccc1C(=O)O | 30.9%
11 | O=C(CCSc1ccccn1)Nc1cc(Cl)ccc1C1=NCCO1 | 23.2%
12 | COC(=O)c1sccc1NC(=O)CCSc1ccc(Br)cc1 | 16.9%
13 | COC(=O)c1sc2ccccc2c1NC(=O)CSc1ccccc1 | 7.94%
14 | COC(=O)c1sccc1NC(=O)COc1ccc(Br)cc1 | 10.8%
15 | COC(=O)c1oc2cccc(Cl)c2c1NC(=O)CSc1ccc(Br)cc1 | 14.7%
16 | COC(=O)c1sc2ncccc2c1NC(=O)CCSc1ccccn1 | 4.95%
17 | COC(=O)c1cc(Br)cc(Br)c1NC(=O)CCSc1ccccn1 | 11.4%
18 | COC(=O)c1ccsc1NC(=O)CSc1ccccc1 | 8.38%
19 | COC(=O)c1oc2ccccc2c1NC(=O)CSc1ccc(Br)cc1 | 7.57%
20 | COC(=O)c1cc(OC)c(OC)cc1NC(=O)CCSc1ccccn1 | 17.5%

Row | SMILES | inhibition
21 | COC(=O)c1cc(OC)c(OC)c(OC)c1NC(=O)CCSc1ccccn1 | 13.5%
22 | COC(=O)c1sccc1NC(=O)CSc1ccccc1 | 9.48%
23 | COC(=O)c1sccc1NC(=O)CSc1cccc(OC)c1 | 6.18%
24 | COC(=O)c1nn(CCc2ccccc2)cc1NC(=O)COc1ccc(Br)cc1 | 2.97%
25 | COC(=O)c1cc(Br)cc(Br)c1NC(=O)C(Sc1ccc(Br)cc1)c1ccccc1 (stereo not given) | 21.3%
26 | COC(=O)c1sccc1NC(=O)CCSc1ccccc1 | 5.24%
27 | COC(=O)c1sccc1NC(=O)CN(C)c1ccccc1 | 7.57%
28 | COC(=O)c1ccccc1NC(=O)CSc1ccccn1 | 7.9%
29 | O=C(CSc1ccc(Br)cc1)Nc1c(C(=O)O)oc2ccccc12 | 8.47%
30 | COC(=O)c1ccsc1NC(=O)CSc1ccc(Br)cc1 | 9%
31 | CN(C)C(=O)c1sccc1NC(=O)CSc1ccc(Br)cc1 | 10.4%
32 | O=C(O)c1cc(Cl)ccc1NC(=O)C(Sc1ccc(Br)cc1)c1ccccc1 (stereo not given) | 27.4%
33 | COC(=O)c1c(NC(=O)CSc2ccc([N+](=O)[O-])cc2)cnn1CCc1ccccc1 | 4.5%
34 | COC(=O)c1c(NC(=O)CSc2cccc(OC)c2)cnn1CCc1ccccc1 | 4.17%
35 | COc1cc(NC(=O)CSc2ccc(Br)cc2)c(C2=NCCO2)cc1OC | 11.9%
36 | COC(=O)c1ccccc1NC(=O)CSc1ccccc1 | 6.05%
37 | COC(=O)c1ccc(Cl)cc1NC(=O)CSc1ccc(Br)cc1 | 12%
38 | COC(=O)c1ccsc1NC(=O)CCSc1ccc(Br)cc1 | 6.45%
39 | COC(=O)c1nn(CCc2ccccc2)cc1NC(=O)CCc1ccccc1 | 3.99%
40 | COC(=O)c1sccc1NC(=O)CSc1ccc(OC)cc1 | 10.8%
